Experimental data as given in ChEMBL document CHEMBL3826959, “Modification of existing antibiotics in the form of precursor prodrugs that can be subsequently activated by nitroreductases of the target pathogen” (Bioorg Med Chem Lett, 2016).
In brackets after ≈: the same amount, converted by molar mass. One block for each compound: values may come before it. Activity calls are given as the source filed them. The rule behind the calls is not given here.

Experiments:
[1] = tested on: Staphylococcus saprophyticus; experiment: Antibacterial activity against Staphylococcus saprophyticus ATCC 15305 measured after 18 hrs by agar dilution method; assay type: functional; conditions: ATCC 15305, 18 h
[2] = tested on: Staphylococcus saprophyticus; experiment: microbe, parasite or virus in culture; conditions: ATCC 15305, read-out: DIZ
Description: Antibacterial activity against Staphylococcus saprophyticus ATCC 15305 assessed as zone of inhibition at 300 ug/disc measured after 16 to 24 hrs by agar diffusion method

[3] = tested on: Staphylococcus saprophyticus; experiment: Antibacterial activity against Staphylococcus saprophyticus ATCC 15305 measured after 18 hrs by broth dilution method; assay type: functional; conditions: ATCC 15305, 18 h
[4] = tested on: Staphylococcus saprophyticus; experiment: Antibacterial activity against Staphylococcus saprophyticus ATCC 15305 assessed as bacterial survival measured after 18 hrs by broth dilution method; assay type: functional
[5] = tested on: Staphylococcus saprophyticus; experiment: Antibacterial activity against Staphylococcus saprophyticus ATCC 15305 assessed as zone of inhibition at 51 ug/disc measured after 16 to 24 hrs by agar diffusion method; assay type: functional; conditions: read-out: DIZ
[6] = Drug level assessed as Staphylococcus saprophyticus ATCC 15305 nitroreductase B mediated compound formation using 130 uM NO2-SMX measured after 200 mins in presence of NADPH-cofactor generating system by LC-MS/MS analysis; assay type: ADME; conditions: isolated protein
[7] = tested on: Staphylococcus saprophyticus; experiment: Antibacterial activity against Staphylococcus saprophyticus ATCC 15305 assessed as zone of inhibition at 54 ug/disc measured after 16 to 24 hrs by agar diffusion method; assay type: functional; conditions: read-out: DIZ
[8] = Stability of the compound; assay type: physicochemical
[9] = tested on: Staphylococcus saprophyticus; experiment: Antibacterial activity against Staphylococcus saprophyticus ATCC 15305 assessed as zone of inhibition at 57 ug/disc measured after 16 to 24 hrs by agar diffusion method; assay type: functional
[10] = Prodrug activation assessed as Staphylococcus saprophyticus ATCC 15305 nitroreductase B mediated sulfamethoxazole formation at 2 mM in presence of NADPH-cofactor generating system by ESI-MS analysis; conditions: isolated protein, 2000 µM
[11] = Prodrug activation assessed as Staphylococcus saprophyticus ATCC 15305 nitroreductase B mediated sulfamethoxazole formation at 130 uM measured after 200 mins in presence of NADPH-cofactor generating system by LC-MS/MS analysis; conditions: isolated protein
[12] = tested on: Staphylococcus saprophyticus; experiment: Activity at Staphylococcus saprophyticus ATCC 15305 nitroreductase B by UV-vis spectrophotometry based Michaelis-Menten plot analsysis
[13] = Prodrug activation assessed as Staphylococcus saprophyticus ATCC 15305 nitroreductase B mediated […] at 2 mM in presence of NADPH-cofactor generating system by ESI-MS analysis; conditions: isolated protein, 2000 µM
[14] = Prodrug activation assessed as Staphylococcus saprophyticus ATCC 15305 nitroreductase B mediated […] at 130 uM measured after 200 mins in presence of NADPH-cofactor generating system by LC-MS/MS analysis; conditions: isolated protein
[15] = Prodrug activation assessed as Staphylococcus saprophyticus ATCC 15305 nitroreductase B mediated N-OH-sulfamethoxazole formation at 2 mM in presence of NADPH-cofactor generating system by ESI-MS analysis; conditions: isolated protein, 2000 µM
[16] = Prodrug activation assessed as Staphylococcus saprophyticus ATCC 15305 nitroreductase B mediated N-OH-sulfamethoxazole formation at 130 uM measured after 200 mins in presence of NADPH-cofactor generating system by LC-MS/MS analysis; conditions: isolated protein
[17] = Drug level assessed as Staphylococcus saprophyticus ATCC 15305 nitroreductase B mediated compound formation using at 2 mM NO2-SMX 2 mM in presence of NADPH-cofactor generating system by ESI-MS analysis; assay type: ADME; conditions: isolated protein, 2000 µM

SMILES: Cc1cc(NS(=O)(=O)c2ccc(N)cc2)no1 [SULFAMETHOXAZOLE]
MIC [1]: 2050 µg/mL (≈ 8.09 mM)
Activity [4]: 12%
zone of inhibition at 51 µg/disc [5]: 16 mm
MIC [3]: 4100 µg/mL (≈ 16.2 mM)
Drug metabolism [6]: metabolite_detected

SMILES: Cc1cc(NS(=O)(=O)c2ccc(NO)cc2)no1
MIC [3]: 2050 µg/mL (≈ 7.61 mM)
zone of inhibition at 54 µg/disc [7]: 10 mm
Drug metabolism [6]: metabolite_detected

SMILES: Cc1cc(NS(=O)(=O)c2ccc(N=O)cc2)no1
Stability [8]: Unstable
Drug metabolism [6]: metabolite_detected

Continued, in another order:

MIC [1]: 8 µg/mL (≈ 0.0336 mM)
MIC [3]: 8 µg/mL (≈ 0.0336 mM)
SMILES: O=C1CN(/N=C/c2ccc([N+](=O)[O-])o2)C(=O)N1 [NITROFURANTOIN]
zone of inhibition at 300 µg/disc [2]: 18 mm

MIC [1]: 2050 µg/mL (≈ 7.23 mM)
Drug metabolism [10]: metabolite_notdetected
Drug metabolism [11]: metabolite_detected
Km [12]: 92.6 µM
kcat [12]: 2.95 s⁻¹
Drug metabolism [13]: metabolite_detected
Drug metabolism [14]: metabolite_detected
Drug metabolism [15]: metabolite_detected
MIC [3]: 2050 µg/mL (≈ 7.23 mM)
Drug metabolism [16]: metabolite_detected
Drug metabolism [17]: metabolite_detected
SMILES: Cc1cc(NS(=O)(=O)c2ccc([N+](=O)[O-])cc2)no1
diameter of the inhibition zone (DIZ) [9]: inactive

MIC [1]: 128 µg/mL (≈ 0.646 mM)
MIC [3]: 32 µg/mL (≈ 0.162 mM)
SMILES: NC(=O)N/N=C/c1ccc([N+](=O)[O-])o1 [NITROFURAZONE]
